Assay: xn = mol fraction of the nth substance listed

CCc1ccccc1 + CCO
viscosity [mPa·s], 101.33 kPa
Conditions	x2 = 0.4	x2 = 0.6	x2 = 0.8	x2 = 0.9
303 K	0.625	0.732	0.842	0.9
313 K	0.547	0.627	0.706	0.752
323 K	0.482	0.54	0.602	0.632

CCOP(=O)(OCC)OCC + CN(C)C=O
298.15 K, 101.3 kPa
Conditions	viscosity [mPa·s]
x1 = 0.1003	0.883
x1 = 0.2008	0.967
x1 = 0.298	1.044
x1 = 0.398	1.123
x1 = 0.4979	1.195
x1 = 0.6076	1.268
x1 = 0.6995	1.329
x1 = 0.7969	1.389
x1 = 0.8973	1.447

CC(F)(F)F + FCC(F)(F)F
viscosity [mPa·s], 101 kPa
Conditions	x2 = 0.247	x2 = 0.5	x2 = 0.743
298.15 K	0.126	0.1447	0.1691
313.15 K	0.105	0.1187	0.1358

CCCCC(CC)CN (configuration not stated) + COCCOCCOCCOCCOC
viscosity [mPa·s], 101.33 kPa
Conditions	x2 = 0.0607	x2 = 0.127	x2 = 0.199	x2 = 0.279	x2 = 0.368	x2 = 0.466	x2 = 0.576	x2 = 0.699	x2 = 0.84
303.2 K	1.04	1.14	1.26	1.39	1.58	1.74	1.99	2.24	2.55
313.2 K	0.89	0.97	1.07	1.16	1.3	1.43	1.59	1.87	2.09

COCCOCCOCCOCCOC + CO
viscosity [mPa·s], 100 kPa
Conditions	293.15 K	298.15 K	303.15 K
x2 = 0.0463	3.726	3.3	2.916
x2 = 0.1031	3.616	3.209	2.845
x2 = 0.1978	3.408	3.036	2.691
x2 = 0.3111	3.132	2.803	2.493
x2 = 0.3886	2.919	2.611	2.334
x2 = 0.494	2.592	2.326	2.089
x2 = 0.5935	2.25	2.031	1.829
x2 = 0.6966	1.868	1.696	1.537
x2 = 0.7966	1.467	1.344	1.225
x2 = 0.8472	1.243	1.145	1.047
x2 = 0.8972	1.024	0.948	0.871
x2 = 0.9495	0.803	0.744	0.683

Clc1ccccc1 + CN(C)C=O
viscosity [mPa·s], 101.33 kPa
Conditions	x2 = 0.1076	x2 = 0.2986	x2 = 0.397	x2 = 0.5024	x2 = 0.6054	x2 = 0.7013	x2 = 0.7925	x2 = 0.8973
303.15 K	0.731	0.76	0.767	–	0.773	0.774	0.771	0.754
313.15 K	–	–	0.69	0.694	0.695	0.694	0.688	–

Clc1ccccc1 + COCCO
303.15 K, 101.33 kPa
Conditions	viscosity [mPa·s]
x2 = 0.1075	0.749
x2 = 0.2093	0.782
x2 = 0.3086	0.836
x2 = 0.4113	0.894
x2 = 0.4993	0.952
x2 = 0.6006	1.028
x2 = 0.7032	1.113
x2 = 0.8023	1.201
x2 = 0.9234	1.309

Clc1ccccc1 + Cc1ccc(C)cc1
101 kPa
Conditions	viscosity [mPa·s]
293.15 K, x1 = 0.1144	0.598
293.15 K, x1 = 0.2316	0.621
293.15 K, x1 = 0.337	0.641
293.15 K, x1 = 0.4432	0.657
293.15 K, x1 = 0.5417	0.673
293.15 K, x1 = 0.6319	0.687
293.15 K, x1 = 0.7398	0.706
293.15 K, x1 = 0.8385	0.722
293.15 K, x1 = 0.9124	0.734
298.15 K, x1 = 0.1363	0.57
298.15 K, x1 = 0.2224	0.585
298.15 K, x1 = 0.3453	0.608
298.15 K, x1 = 0.4555	0.625
298.15 K, x1 = 0.5832	0.645
298.15 K, x1 = 0.6956	0.667
298.15 K, x1 = 0.7881	0.679
298.15 K, x1 = 0.9065	0.695
303.15 K, x1 = 0.1144	0.534
303.15 K, x1 = 0.2318	0.55
303.15 K, x1 = 0.3419	0.572
303.15 K, x1 = 0.4624	0.587
303.15 K, x1 = 0.5653	0.602
303.15 K, x1 = 0.6803	0.615
303.15 K, x1 = 0.7947	0.635
303.15 K, x1 = 0.9082	0.649

CCCCn1cc[n+](C)c1.F[P-](F)(F)(F)(F)F + O
298.15 K, 101 kPa
Conditions	viscosity [mPa·s]
x2 = 0.0518	198
x2 = 0.2146	92.5

Clc1cccc2ccccc12 + COc1ccccc1
viscosity [mPa·s], 101.33 kPa
Conditions	x1 = 0.0985	x1 = 0.1969	x1 = 0.2977	x1 = 0.3974	x1 = 0.4997	x1 = 0.5959	x1 = 0.6962	x1 = 0.7827	x1 = 0.8985
298.15 K	1.025	1.116	1.262	1.409	1.568	1.72	1.896	2.096	2.425
303.15 K	0.946	1.045	1.159	1.291	1.43	1.566	1.724	1.891	2.18
308.15 K	0.878	0.966	1.069	1.185	1.312	1.431	1.57	1.717	1.973

COC(C)(C)C + CCCO
Conditions	viscosity [mPa·s]
293.15 K, 101 kPa, x1 = 0.0599	1.835
298.15 K, 101 kPa, x1 = 0.0403	1.735
298.15 K, 101 kPa, x1 = 0.1495	1.275
298.15 K, 101.33 kPa, x1 = 0.0111	1.902
298.15 K, 101.33 kPa, x1 = 0.0293	1.804
298.15 K, 101.33 kPa, x1 = 0.0591	1.651
298.15 K, 101.33 kPa, x1 = 0.1133	1.416
298.15 K, 101.33 kPa, x1 = 0.1374	1.327
298.15 K, 101.33 kPa, x1 = 0.2501	0.998
298.15 K, 101.33 kPa, x1 = 0.3008	0.889
298.15 K, 101.33 kPa, x1 = 0.324	0.85
298.15 K, 101.33 kPa, x1 = 0.3581	0.792
298.15 K, 101.33 kPa, x1 = 0.3641	0.779
298.15 K, 101.33 kPa, x1 = 0.4004	0.729
298.15 K, 101.33 kPa, x1 = 0.4451	0.671
298.15 K, 101.33 kPa, x1 = 0.488	0.624
298.15 K, 101.33 kPa, x1 = 0.5535	0.562
298.15 K, 101.33 kPa, x1 = 0.6157	0.512
298.15 K, 101.33 kPa, x1 = 0.677	0.471
298.15 K, 101.33 kPa, x1 = 0.7585	0.427
298.15 K, 101.33 kPa, x1 = 0.8246	0.397
298.15 K, 101.33 kPa, x1 = 0.8813	0.378
298.15 K, 101.33 kPa, x1 = 0.9491	0.356
298.15 K, 101.33 kPa, x2 = 0.014	0.344

COCCOCCOCCOCCOC + CCCCO
viscosity [mPa·s], 101 kPa
Conditions	298.15 K	303.15 K	308.15 K
x2 = 0.1013	–	–	2.525
x2 = 0.7991	2.165	1.945	–

Clc1ccccc1 + Cc1ccccc1C
101 kPa
Conditions	viscosity [mPa·s]
293.15 K, x1 = 0.1217	0.755
293.15 K, x1 = 0.2237	0.76
293.15 K, x1 = 0.4305	0.759
293.15 K, x1 = 0.5325	0.753
293.15 K, x1 = 0.6305	0.76
293.15 K, x1 = 0.7288	0.755
293.15 K, x1 = 0.8295	0.756
293.15 K, x1 = 0.9051	0.75
298.15 K, x1 = 0.1005	0.712
298.15 K, x1 = 0.2307	0.708
298.15 K, x1 = 0.3108	0.704
298.15 K, x1 = 0.4337	0.706
298.15 K, x1 = 0.5454	0.705
298.15 K, x1 = 0.6079	0.705
298.15 K, x1 = 0.7762	0.706
298.15 K, x1 = 0.8807	0.705
303.15 K, x1 = 0.1214	0.66
303.15 K, x1 = 0.2389	0.666
303.15 K, x1 = 0.3117	0.653
303.15 K, x1 = 0.4128	0.657
303.15 K, x1 = 0.5674	0.653
303.15 K, x1 = 0.6882	0.661
303.15 K, x1 = 0.7891	0.661
303.15 K, x1 = 0.9156	0.66
